Reference: patent publication US7598419B2, “Compounds for modulating cell proliferation” (HSC Research and Development Limited Partnership, priority 2004, dated 2009)
Each block holds one compound with its values, some of them ahead of it.

Legend:
[1] = test system: cells of the myeloid lineage; details: in vitro, ex vivo and in vivo; cited from earlier work
normal bone marrow cells [2] = test: CFU-GEMM assay: normal bone marrow differentiation in culture; assay type: cell-based, human
Method: (§1) The CFU-GEMM assay was performed according to Fauser and Messner (1978, Blood, 52(6) 143-8) and Messner and Fausser (1980, Blut, 41(5) 327-33) with some variations. In brief, heparinized bone marrow cells were layered over Percoll (1.077 gm/ml) (Pharmacia Fine Chemical, Piscataway N.J.) and centrifuged at 400 g at 4° C. for 10 minutes to remove neutrophils and RBCs. The fractionated BM cells at 2×10^5 cells/ml were cultured in IMDM (OCI, Toronto) containing 0.9% (vol/vol) methylcellulose supplementd with 30% FCS (Cansera Rexdale, ON.) or normal human plasma, a cocktail of cytokines containing G-CSF (10 ng/ml, Amgen), IL-3 (40 U/ml, Immunex), MGF (50 ng/ml, Immunex), Erythropoietin (2 u/ml, Epprex) or TPO (10 ng/ml, Amgen), 5×10^−5M β-2-mercaptoethanol and the specified concentration of CR4. The culture mixture was plated in 1 ml volumes into 35 mm petri dishes and incubated at 37° C., 5% CO2 in a humidified atmosphere. All cultures were evaluated at 14 days for the number of BFU-E colonies (defined as aggregates of more than 500 hemoglobinized cells or, 3 or more erythroid subcolonies), CFU-GM colonies (defined as granulocyte or monocyte-macrophage cells or both), CFU-Meg colonies (comprising 4 or more megakaryocytes) and CFU-GEMM colonies (a mixed population comprising of all elements).
as §1, with “1243-8)” for “143-8)”, “concentrations” for “concentration”, “CR19.” for “CR4.”, “hemaglobinized” for “hemoglobinized”, “subcolonies) and CFU-C” for “subcolonies), CFU-GM”, “both).” for “both), CFU-Meg colonies (comprising 4 or more megakaryocytes) and CFU-GEMM colonies (a mixed population comprising of all elements).”
as §1, with “1243-8)” for “143-8)”, “variations (British Journal of Haematology, 1992, 80, p 40-48).” for “variations.”, “test compound.” for “CR4.”, “CO2,” for “CO2”, “subcolonies) and CFU-C” for “subcolonies), CFU-GM”, “both).” for “both), CFU-Meg colonies (comprising 4 or more megakaryocytes) and CFU-GEMM colonies (a mixed population comprising of all elements).”

[3] = test system: Philadelphia positive acute lymphoblastic leukemia (Ph+ ALL) cells; test: Colony assay of Philadelphia positive ALL cells in methylcellulose culture; assay type: cell-based, human
Method: (§2) Ph+ ALL cells were plated in 1 ml volumes, in the absence of exogenous growth factors, into 35 mm petri dishes (Nunc, Gibco) containing alpha MEM (Gibco) plus 10-20% FCS (Cansera Rexdale, ON.) in 0.9% (vol/vol) methylcellulose (Fluka, Switzerland) with the indicated concentrations of CR4. Cultures were set at 37° C., 5% CO2 in a humidified atmosphere. Colonies consisting of more than 20 cells were counted at 12 days or earlier using an inverted microscope.
as §2, with “ALL” for “Ph+ ALL”, “20%” for “10-20%”, “and” for “with”, “compound.” for “CR4.”
as §2, with “ALL” for “Ph+ ALL”, “20%” for “10-20%”, “and” for “with”, “CR24.” for “CR4.”, “9” for “12”
as §2, with “ALL” for “Ph+ ALL”, “20%” for “10-20%”, “and” for “with”, “CR19.” for “CR4.”, “9” for “12”

normal bone marrow cells [4] = test: In vitro purging of normal bone marrow; assay type: cell-based, human; details: 50 μM, seven hours exposure; FIG. 21
Method: Heparinized bone marrow cells were layered over Percoll (1.077 gm/ml) (Pharmacia Fine Chemical, Piscataway N.J.) and centrifuged at 400 g at 4° C. for 10 minutes to remove neutrophils and RBCs.
(§3) For the purging process, the cells were resuspended at 1×10^6/ml in complete medium with or without 50 μM CR4. The cells were incubated with the CR4 for two and a half hours at 37° C., 5% CO2. At the end of this period the cells were thoroughly washed in medium to remove CR4 and then cultured at 2×10^5 cells/ml in IMDM (OCI, Toronto) containing 0.9% (vol/vol) methylcellulose supplemented with 30% FCS (Cansera Rexdale, ON.) or normal human plasma, a cocktail of cytokines containing G-CSF (10 ng/ml, Amgen), IL-3 (40 U/ml, Immunex), MGF (50 ng/ml, Immunex), Erythropoietin (2 u/ml, Epprex) or TPO (10 ng/ml, Amgen) and 5×10^−5M β-2-mercaptoethanol. The culture mixture was plated in 1 ml volumes into 35 mm petri dishes and incubated at 37° C., 5% CO2 in a humidified atmosphere. All cultures were evaluated at 14 days for the number of BFU-E colonies (defined as aggregates of more than 500 hemaglobinized cells or, 3 or more erythroid subcolonies), CFU-C colonies (defined as granulocyte or monocyte-macrophage cells or both) and CFU-GEMM colonies (a mixed population comprising of all elements).
as §3, with “μM CR11.” for “μM CR4.”, “the tryrphostin” for “the CR4”, “for seven” for “for two and a half”, “remove CR11” for “remove CR4”, “methylcellulose supplementd” for “methylcellulose supplemented”, “500 hemoglobinized” for “500 hemaglobinized”

[5] = test system: a variety of cancer cells; test: Growth of cancer cells in culture (summary over cell types); assay type: cell-based; details: for effectiveness against a variety of cell types: Acute Lymphoblastic Leukemia, Philadelphia positive Leukemia, Acute Myeloid Leukemia
[6] = test system: Philadelphia positive acute lymphoblastic leukemia cells; test: In vitro purging of Philadelphia positive ALL with CR11; assay type: cell-based, human; details: 50 μM, 7 hours exposure; FIG. 22
Method: For the purging assay, the cells were resuspended in complete medium with or without CR11 as indicated and incubated at 37° C., 5% CO2 for 0-7 hours. Cells were then washed thoroughly with medium to remove the CR11, resuspended and plated in 1 ml volumes, in the absence of exogenous growth factors, into 35 mm petri dishes (Nunc, Gibco) containing alpha MEM (Gibco) plus 20% FCS (Cansera Rexdale, ON.) in 0.9% (vol/vol) methylcellulose (Fluka, Switzerland). Cultures were set at 37° C., 5% CO2 in a humidified atmosphere. Colonies consisting of more than 20 cells were counted at 9 days or earlier using an inverted microscope.

[7] = test system: Philadelphia positive ALL, AML and lymphoma; test: High dose ex vivo / in vitro purging assays (summary); assay type: cell-based
[8] = low nanomolar doses, long term exposure

SMILES: COc1cc(/C=C/C=C(C#N)C#N)cc(OC)c1O [CR7, (E,E)-2-cyano-3-(3,5-dimethoxy-4-hydroxystyryl)acrylonitrile]
promotion of myelopoiesis [1]: capable of promoting myelopoiesis

SMILES: COc1cc(/C=C/C=C(\C#N)C(=O)NCc2ccccc2)ccc1O [CR56, (E,E) 2-(benzylaminocarbonyl)-3-(3-methoxy-4-hydroxystyryl)acrylonitrile]
promotion of myelopoiesis [1]: capable of promoting myelopoiesis

SMILES: COc1cc(/C=C/C=C(\C#N)C(=O)NCCc2ccccc2)cc(OC)c1O [CR8, (E,E)-2-(Phenylethylaminocarbonyl)-3-(3,5-dimethoxy-4-hydroxystyryl)acrylonitrile]
promotion of myelopoiesis [1]: capable of promoting myelopoiesis

Continued, in another order:

bone marrow colony formation (normal bone marrow cells [2]; 10 or 20 μM, 14 days, FIG. 13): minimal inhibition
SMILES: COc1cc(/C=C/C=C(\C#N)C(=O)NCCO)cc(OC)c1O [CR24, (E,E)-2-(β-Ethanolaminocarbonyl)-3-(3,5-dimethoxy-4-hydroxystyryl)acrylonitrile]
lowest concentration effective against Ph+ ALL cells ([3]; colonies at 9 days, FIG. 10): 0.5 µM

BFU-E, CFU-GEMM and CFU-C colonies after purging (normal bone marrow cells [4]): all normal
SMILES: COc1cc(/C=C/C=C(\C#N)C(=O)NCc2ccc(O)c(O)c2)cc(OC)c1O [CR11, (E,E)-2-(3,4-Dihydroxybenzylaminocarbonyl)-3-(3,5-dimethoxy-4-hydroxystyryl)acrylonitrile]
promotion of myelopoiesis [1]: capable of promoting myelopoiesis
colony formation of normal bone marrow after purging (normal bone marrow cells [4]): did not result in any significant inhibition
effectiveness against a variety of cell types [5]: highly effective
killing of Ph+ ALL cells after purging [6]: complete killing
effectiveness as ex vivo purging agents [7]: effective

development of BFU-E colonies (normal bone marrow cells [2]; 2.5 μM, 14 days, FIG. 12): significant inhibition
BFU-E colonies (normal bone marrow cells [2]; 5 μM, 14 days, FIG. 12): virtually absent
SMILES: N#C/C(=C\C=C\c1ccccc1)C(=O)NCc1ccc(O)c(O)c1 [CR19, (E,E)-2-(3,4 Dihydroxybenzylaminocarbonyl)-3-styrylacrylonitrile]
promotion of myelopoiesis [1]: capable of promoting myelopoiesis
CFU-C colony formation (normal bone marrow cells [2]; 2.5 μM, 14 days, FIG. 12): boosted
CFU-C colony formation (normal bone marrow cells [2]; 5 μM, 14 days, FIG. 12): stimulatory effect disappeared
normal cell growth and differentiation (normal bone marrow cells [2]; [8]): unaffected
effectiveness against a variety of cell types [5]: highly effective
toxicity to cancer cells [5, 8]: highly toxic

BFU-E colony formation (normal bone marrow cells [2]; 20 μM, 14 days, FIG. 13): caused inhibition
SMILES: N#C/C(=C\C=C\c1ccc(O)c(O)c1)C(=O)NCc1ccc(O)c(O)c1 [CR21, (E,E)-2-(3,4 Dihydroxybenzylaminocarbonyl)-3-(3,4-dihydroxystyryl)acrylonitrile]
concentrations displaying inhibition of Ph+ ALL cell growth ([3]; Example 42, FIG. 8, colonies at 12 days): 5 µM
